Article PMC8117302 (Breast Cancer Research : BCR, 2021)
“And” between values parts separate entries of the source, which are not always exact repeats. Identical values can stand only once.

Experiments:
MCF7 WT ERα tumors = test: MIND xenograft dose-response study, MCF7 WT ERα; format: in vivo, NSG mice; conditions: vehicle 4%, p = NS
MCF7 D538G ERα tumors = test: MIND xenograft dose-response study, MCF7 D538G ERα; format: in vivo, NSG mice; conditions: for liver metastases (H&E): D538G mice
MCF7 Y537S ERα tumors [1] = test: MIND xenograft combination study, MCF7 Y537S ERα, bone histology; format: in vivo, NSG mice; conditions: for tumor metastases to the bone (H&E and IHC staining of bone marrow): Y537S model, 5 mg/kg LAS, in contrast to vehicle control, 5 mg/kg
MCF7 Y537S ERα tumors [2] = test: MIND xenograft dose-response study, MCF7 Y537S ERα; format: in vivo, NSG mice; conditions: 5 and 10 mg/kg s.c. 5 days/week, at sacrifice 70 days after treatment initiation, vs vehicle
Protocol: Mouse studies were performed in compliance with an approved Institutional Animal Care and Use Committee protocol at the University of Chicago. To better mimic the progression of ductal lesions to invasive disease, a mammary intraductal (MIND) mouse model was used. NSG (NOD.Cg-Prkdc^scid Il2rg^tm1Wjl/SzJ) mice (Jackson Laboratories) were anesthetized by intraperitoneal injections with a ketamine/xylazine (100/5 mg/kg) mixture in PBS prior to cancer cell injections. Single-cell suspensions of 250,000 WT or mutant MCF7 cells were injected in the mammary ducts of inguinal glands as previously described. Tumor cell growth in situ was followed once weekly or biweekly after injection via luminescence imaging with a Xenogen IVIS 200 instrument in the Integrated Small Animal Imaging Research Resource at the University of Chicago. […] Effects were evaluated in the models expressing WT, Y537S, and D538G ERα for monotherapies, and in the model expressing Y537S ERα for combination therapies.
Treatment was initiated 2 to 3 weeks (dose-response study) or at day 20 (combination study) after cancer cell injections. […] Metastases were evaluated with ex vivo imaging of excised long bones, brains, lungs, and livers and quantified by luciferase activity for the combination study.
Tissues were harvested and fixed in formalin. […] Lung and bone metastases were analyzed using the NSI-Elements software from Nikon. […]

breast cancer = conditions: PEARL trial, 5 years of LAS; cited from earlier work
[3] = fulvestrant 5 mg/mouse, 10 legs examined
[4] = lasofoxifene 5 mg/kg, 10 legs examined
[5] = lasofoxifene 10 mg/kg, 10 legs examined
[6] = palbociclib 35 mg/kg, 12 legs examined
[7] = palbociclib 70 mg/kg, 12 legs examined

C[C@]12CC[C@@H]3c4ccc(O)cc4C[C@@H](CCCCCCCCC[S+]([O-])CCCC(F)(F)C(F)(F)F)[C@H]3[C@@H]1CC[C@@H]2O (stereo partly shown) [Fulvestrant]
average percent area of lung metastasis (MCF7 WT ERα tumors; 5 mg/mouse s.c. once per week): 1%
liver metastases (H&E) (MCF7 D538G ERα tumors; FUL 5 mg/mouse s.c. once per week): no liver metastases were observed
Number of legs with metastases (MCF7 Y537S ERα tumors [1]; [3]): 2
Number of legs with necrosis (MCF7 Y537S ERα tumors [1]; [3]): 1
% necrosis (MCF7 Y537S ERα tumors [1]; fulvestrant 5 mg/mouse, leg with necrosis): 18%
Metastases, % of bone marrow, for each leg with metastasis (MCF7 Y537S ERα tumors [1]; fulvestrant 5 mg/mouse, listed as FUL): 1% and 10%

Oc1ccc2c(c1)CC[C@H](c1ccccc1)[C@@H]2c1ccc(OCCN2CCCC2)cc1 [Lasofoxifene]
average percent area of lung metastasis (MCF7 WT ERα tumors; all tested doses (1, 5, 10 mg/kg s.c. 5 days/week)): 0.9–1.5%
liver metastases (H&E) (MCF7 D538G ERα tumors; LAS 1, 5, 10 mg/kg s.c. 5 days/week): no liver metastases were observed
Reduction in tumor weight (MCF7 D538G ERα tumors; D538G, 5 and 10 mg/kg s.c. 5 days/week, at sacrifice 70 days after treatment initiation, vs vehicle): ~50%
Reduction in tumor weight (MCF7 Y537S ERα tumors [2]): approximately 60%
tumor metastases to the bone (H&E and IHC staining of bone marrow) (MCF7 Y537S ERα tumors [1]): No metastases were observed
tumor metastases to the bone (H&E and IHC staining of bone marrow) (MCF7 Y537S ERα tumors [1]; listed as LAS): completely blocked
Number of legs with metastases (MCF7 Y537S ERα tumors [1]; [4]): none
Number of legs with necrosis (MCF7 Y537S ERα tumors [1]; [4]): none
Number of legs with metastases (MCF7 Y537S ERα tumors [1]; [5]): none
Number of legs with necrosis (MCF7 Y537S ERα tumors [1]; [5]): none
reduced risk for invasive ER+ breast cancer (breast cancer): 83%
reduced risk for total breast cancers (breast cancer): 79%

CC(=O)c1c(C)c2cnc(Nc3ccc(N4CCNCC4)cn3)nc2n(C2CCCC2)c1=O [Palbociclib]
Number of legs with metastases (MCF7 Y537S ERα tumors [1]; [6]): none
Number of legs with necrosis (MCF7 Y537S ERα tumors [1]; [6]): none
Number of legs with metastases (MCF7 Y537S ERα tumors [1]; [7]): none
Number of legs with necrosis (MCF7 Y537S ERα tumors [1]; [7]): none
